Where a name gives a salt, the structure may show the parent alone.
Key:
Assay in all cases: Fluorescence polarization (FP) PKC inhibition assay, Protein Kinase C Assay Kit, Red (Invitrogen)
Format in all cases: biochemical
PKC theta = target: T1, PKC theta (Homo sapiens, UniProt Q04759); conditions: enzyme 20 ng/ml, ATP 2.5 μM
T1 construct: purchased Invitrogen 7101
Procedure: (§1) The substrate used was […]
(§2) To perform the assay, 2 μl of a solution of the compound to be tested in DMSO (at each concentration) was added to 6 μl of a solution of the enzyme in 10 mM HEPES, 5 mM dithiotreitol, 0.1% Triton X-100, pH 7,4.
(§3) After incubating for 30 minutes at room temperature, 4 μl of a mixture of ATP and the protein substrate in 60 mM HEPES (pH7.4), 15 mM MgCl2, 0.3 mM CaCl2, 0.06% NP40 was added.
(§4) After incubating for 80 minutes at room temperature, 3 μl of a mix solution of 500 mM EDTA (stop solution) and the Rhodamine-based PKC Red Tracer (from the Protein Kinase C Assay Kit) in BGG/phosphate buffer (pH7.4) with 0.02% NaN3 and 0.1% Triton X-100 was added and 5 μl of a the Anti-Phosphoserine antibody (also from the Protein Kinase C Assay Kit) in BGG/phosphate buffer (pH7.4) with 0.02% NaN3.
(§5) The results were fitted to a curve using the XL-Fit algorithm and IC50 values were calculated for each fitted curve, again using the XL-Fit algorithm.

PKC gamma = target: T2, PKC gamma (Homo sapiens, UniProt P05129); conditions: enzyme 20 ng/ml, ATP 2.5 μM
T2 construct: purchased Invitrogen 9343
Procedure: as §1, §2, §3, §4, §5

PKC epsilon = target: T3, PKC epsilon (Homo sapiens, UniProt Q02156); conditions: enzyme 10 ng/ml, ATP 2.5 μM
T3 construct: purchased Invitrogen 6906
T3 sequence (Q02156 1-737): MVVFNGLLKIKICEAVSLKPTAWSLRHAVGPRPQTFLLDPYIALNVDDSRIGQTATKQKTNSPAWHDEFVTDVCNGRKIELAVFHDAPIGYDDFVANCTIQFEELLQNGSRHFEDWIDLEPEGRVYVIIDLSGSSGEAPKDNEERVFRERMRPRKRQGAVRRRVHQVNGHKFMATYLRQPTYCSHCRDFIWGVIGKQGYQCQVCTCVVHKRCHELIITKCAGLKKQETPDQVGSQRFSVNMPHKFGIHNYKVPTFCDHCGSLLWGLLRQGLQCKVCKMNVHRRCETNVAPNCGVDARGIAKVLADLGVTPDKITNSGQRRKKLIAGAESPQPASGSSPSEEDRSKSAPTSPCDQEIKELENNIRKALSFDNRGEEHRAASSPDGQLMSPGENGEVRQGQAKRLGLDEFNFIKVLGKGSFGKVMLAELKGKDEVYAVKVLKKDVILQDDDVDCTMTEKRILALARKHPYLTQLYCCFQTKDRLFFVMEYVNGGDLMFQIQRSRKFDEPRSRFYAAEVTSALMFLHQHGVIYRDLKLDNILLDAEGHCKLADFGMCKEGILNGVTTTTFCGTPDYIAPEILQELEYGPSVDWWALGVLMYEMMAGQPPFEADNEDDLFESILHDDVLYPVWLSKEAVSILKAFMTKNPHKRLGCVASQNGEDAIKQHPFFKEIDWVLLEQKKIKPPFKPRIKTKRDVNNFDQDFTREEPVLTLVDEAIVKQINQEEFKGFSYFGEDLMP
Procedure: as §1, §2, §3, §4, §5

PKC zeta = target: T4, PKC zeta (Homo sapiens, UniProt Q05513); conditions: enzyme 20 ng/ml, ATP 2.5 μM
T4 construct: purchased Invitrogen 9232
T4 sequence (Q05513 1-592): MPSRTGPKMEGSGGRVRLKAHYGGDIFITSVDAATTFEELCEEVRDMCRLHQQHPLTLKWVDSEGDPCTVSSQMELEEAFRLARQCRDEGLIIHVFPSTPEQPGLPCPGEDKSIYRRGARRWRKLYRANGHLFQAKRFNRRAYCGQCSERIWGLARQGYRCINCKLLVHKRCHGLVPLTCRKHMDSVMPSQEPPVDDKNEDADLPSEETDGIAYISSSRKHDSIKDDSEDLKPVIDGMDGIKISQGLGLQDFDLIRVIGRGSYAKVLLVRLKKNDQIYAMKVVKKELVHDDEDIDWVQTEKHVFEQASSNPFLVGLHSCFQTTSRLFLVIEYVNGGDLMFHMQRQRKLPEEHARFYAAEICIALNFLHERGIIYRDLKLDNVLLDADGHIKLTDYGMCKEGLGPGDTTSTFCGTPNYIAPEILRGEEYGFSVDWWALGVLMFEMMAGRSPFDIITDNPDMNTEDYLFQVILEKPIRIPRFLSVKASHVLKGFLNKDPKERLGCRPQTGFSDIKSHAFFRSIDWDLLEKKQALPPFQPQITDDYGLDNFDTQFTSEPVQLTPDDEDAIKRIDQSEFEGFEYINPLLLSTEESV
Procedure: as §2, §3, §4, §5

T1 sequence (Q04759 whole entry): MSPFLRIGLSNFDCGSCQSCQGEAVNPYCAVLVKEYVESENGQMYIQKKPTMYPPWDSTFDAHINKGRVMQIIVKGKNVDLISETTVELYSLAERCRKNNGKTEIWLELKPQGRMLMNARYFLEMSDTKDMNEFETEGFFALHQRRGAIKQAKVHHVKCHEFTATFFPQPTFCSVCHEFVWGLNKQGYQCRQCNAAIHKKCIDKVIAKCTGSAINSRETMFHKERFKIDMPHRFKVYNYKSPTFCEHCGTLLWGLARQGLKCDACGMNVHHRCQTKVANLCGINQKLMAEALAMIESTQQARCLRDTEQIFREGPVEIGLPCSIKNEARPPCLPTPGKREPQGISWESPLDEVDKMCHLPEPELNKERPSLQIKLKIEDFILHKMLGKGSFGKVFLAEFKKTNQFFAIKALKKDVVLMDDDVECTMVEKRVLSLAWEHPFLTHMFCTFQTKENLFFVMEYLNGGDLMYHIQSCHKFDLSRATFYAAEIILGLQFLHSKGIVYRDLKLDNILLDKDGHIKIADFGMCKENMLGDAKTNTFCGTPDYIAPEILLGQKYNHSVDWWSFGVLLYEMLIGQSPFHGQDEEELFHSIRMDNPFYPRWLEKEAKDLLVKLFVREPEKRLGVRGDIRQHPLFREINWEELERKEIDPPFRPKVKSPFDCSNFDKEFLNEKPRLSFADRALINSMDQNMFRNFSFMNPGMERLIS

| IC50 (PKC theta; substrate […] 1 μM) [µM] | IC50 (PKC gamma; substrate […] 1 μM) [µM] | IC50 (PKC epsilon; substrate […] 1 μM) [µM] | IC50 (PKC zeta; substrate […] 1 μM) [µM] | Compound | IC50 (PKC theta; substrate RFARKGSLRQKNV 1 μM) [µM] | IC50 (PKC gamma; substrate RFARKGSLRQKNV 1 μM) [µM] | IC50 (PKC epsilon; substrate RFARKGSLRQKNV 1 μM) [µM] | IC50 (PKC zeta; substrate RFARKGSLRQKNV 1 μM) [µM] |
| --- | --- | --- | --- | --- | --- | --- | --- | --- |
| 11.3 | > 100 | 8.04 | > 100 | NC(c1ccccc1)c1ccc(C(=O)Nc2ccncc2)cc1 (stereo not shown) [Compound 35, 4-(1-amino-phenyl-methyl)-N-pyridin-4-yl-benzamide] | – | – | – | – |
| > 100 | > 100 | > 100 | > 100 | N/C(=N\O)c1ccc(C(=O)Nc2ccncc2)cc1 [Compound 12, 4-(N-pyridin-4-yl)-benzamide oxime] | – | – | – | – |
| 0.63 | 17.3 | 0.3 | > 100 | NC(c1ccc(C(=O)Nc2ccnc3[nH]ccc23)cc1)C1CCCC1 (stereo not shown) [Compound 42] | – | – | – | – |
| – | – | – | – | 4-aminomethyl-2,5-dimethyl-N-pyridin-4-yl-benzamide dihydrochloric acid salt [Compound 39] | 16.8 | > 100 | 8.3 | > 100 |
| 2.2 | 30.7 | 1.6 | > 100 | O=C(Nc1ccnc2[nH]ccc12)c1ccc(C2CCCCN2)cc1 (stereo not shown) [Compound 44, 4-piperidin-2-yl-N-(1H-pyrrolo[2,3pyridinedin-4-yl)-benzamidedihydrobromic acid salt] | – | – | – | – |
| > 100 | > 100 | > 100 | > 100 | NC[C@H]1CC[C@H](C(=O)Nc2ccccn2)CC1 [Compound 7, Trans-4-aminomethyl-cyclohexanecarboxylic acid pyridin-2-ylamide] | – | – | – | – |
| > 100 | > 100 | > 100 | > 100 | NCc1cccc(C(=O)Nc2ccncc2)c1 [Compound 9, 3-aminomethyl-N-pyridin-4-yl-benzamide dihydrochloric acid salt] | – | – | – | – |
| > 100 | > 100 | > 100 | > 100 | CC(=O)NCc1ccc(C(=O)Nc2ccncc2)cc1 [Compound 16] | – | – | – | – |
| > 100 | > 100 | > 100 | > 100 | NCCCCCC(=O)Nc1ccncc1 [Compound 1, 6-Amino-hexanoic acid pyridine-4-ylamide dihydrochloric acid salt] | – | – | – | – |
| > 100 | > 100 | > 100 | > 100 | NC[C@H]1CC[C@H](C(=O)Nc2ccc(F)cc2)CC1 [Compound 4, Trans-4-aminomethyl-cyclohexanecarboxylic acid (4-fluoro-phenyl)-amide hydrochloric acid salt] | – | – | – | – |
| > 100 | > 100 | > 100 | > 100 | NCc1ccc(-c2nc3ccncc3[nH]2)cc1 [Compound 14, 4-(3H-imidazo[4,5-c]pyridine-2-yl)-benzylamine] | – | – | – | – |
| 1.7 | 76 | 0.94 | 70 | NC(c1ccc(C(=O)Nc2ccncc2)cc1)C1CCCC1 (stereo not shown) [Compound 27] | – | – | – | – |
| 2.25 | > 100 | 1.21 | 22.1 | CC(N)c1ccc(C(=O)Nc2ccncc2)cc1 (stereo not shown) [Compound 23, 4-(1-amino-ethyl)-N-pyridin-4-yl-benzamide dihydrochloric acid salt] | – | – | – | – |
| 7.8 | > 100 | 2.5 | 6.4 | CC(N)c1ccc(C(=O)Nc2ccncc2)c2ccccc12 (stereo not shown) [Compound 38, 4-(1-amino-ethyl)-naphthalene-1-carboxylic acid pyridinedin-4-ylamide dihydrochloric acid salt] | – | – | – | – |
| > 100 | > 100 | > 100 | > 100 | NC[C@H]1CC[C@H](C(=O)NCc2ccncc2)CC1 [Compound 5, Trans-4-aminomethyl-cyclohexanecarboxylic acid (pyridine-4-ylmethyl)-amide] | – | – | – | – |
| > 100 | 90.5 | > 100 | 40.3 | NC[C@H]1CC[C@H](C(=O)Nc2ccccc2)CC1 [Compound 3, Trans-4-aminomethyl-cyclohexanecarboxylic acid phenylamide hydrochloric acid salt] | – | – | – | – |
| 3.2 | – | 3.9 | > 100 | CC(N)c1ccc(C(=O)Nc2ccnc3[nH]ccc23)s1 (stereo not shown) [Compound 40, 5-(1-amino-ethyl)-thiophene-2-carboxylic acid N-(1H-pyrrolo[2,3pyridinedin-4-yl)-benzamidedihydrochloric acid salt] | – | – | – | – |
| > 100 | > 100 | > 100 | > 100 | NCc1ccc(NCc2ccncc2)cc1 [Compound 11, (4-aminomethyl-phenyl)-pyridin-4-ylmethyl-amine dihydrochloric acid salt] | – | – | – | – |
| 87.2 | > 100 | 34.4 | > 100 | NCc1ccc(C(=O)Nc2ccncn2)cc1 [Compound 21, 4-aminomethyl-N-pyrimidin-4-yl-benzamide dihydrochloric acid salt] | – | – | – | – |
| 12.2 | > 100 | 4.98 | > 100 | CC(C)(C)CC(N)c1ccc(C(=O)Nc2ccncc2)cc1 (stereo not shown) [Compound 25, 4-(1-amino-3,3-dimethyl-butyl)-N-pyridin-4-yl-benzamide dihydrochloric acid salt] | – | – | – | – |
| > 100 | > 100 | > 100 | > 100 | NCc1ccc(C(=O)Nc2ccncc2)o1 [Compound 15, 5-(amino-methyl)-furan-2-carboxylic acid pyridine-4-ylamide dihydrochloric acid salt] | – | – | – | – |
| 0.77 | 11.3 | 0.4 | > 100 | CC(N)c1ccc(C(=O)Nc2ccnc3[nH]ccc23)cc1 (stereo not shown) [Compound 41, 4-(1-amino-ethyl)-N-(1H-pyrrolo[2,3pyridinedin-4-yl)-benzamidedihydrochloric acid salt] | – | – | – | – |
| 75 | > 100 | 19.5 | > 100 | O=C(Nc1ccncc1)c1ccc(C2=NCCCN2)cc1 [Compound 34, N-pyridin-4-yl-4-(1,4,5,6-tetrahydro-1H-pyrimidin-2-yl)-benzamide] | – | – | – | – |
| 9.01 | > 100 | 16 | 45.9 | CC(N)c1ccc(C(=O)Nc2ccncc2)s1 (racemic) [Compound 22, 5-(1-amino-ethyl)-thiophene-2-carboxylic acid pyridinedin-4-ylamide] | – | – | – | – |
| 80.3 | > 100 | 18.7 | > 100 | COc1ccc(C(N)c2ccc(C(=O)Nc3ccncc3)cc2)cc1 (stereo not shown) [Compound 37, 4-[1-amino-(4-methoxyphenyl)-methyl]-N-pyridin-4-yl-benzamide] | – | – | – | – |
| > 100 | > 100 | > 100 | > 100 | CC(c1ccc(C(=O)Nc2ccncc2)cc1)N(C)C (stereo not shown) [Compound 17] | – | – | – | – |

Reference: patent US20070191420A1, “Kinase inhibitors” (Devgen NV, priority 2004, published 2007)
